ChEMBL document CHEMBL3885861, “Open TG-GATES”

Organism: Rattus norvegicus
Assay: Open TG-GATES - Regimen: Single
Assay type: toxicity, organism-based, Sprague-Dawley
Design: regimen Single, gender Male, age 6 weeks
Settings: in vivo, po, 300 mg/kg, route gavage, dose level Middle; for APTT / Bas / Eos / Fbg / Hb / Ht / Lym / MCH / MCHC / MCV / Mono / Neu / PT / Plat / RBC / Ret / WBC: tissue Blood; for KIDNEY_L / KIDNEY_R / KIDNEY_TOTAL: tissue Kidney; for LIVER: tissue Liver; for A/G / ALP / ALT / AST / BUN / CRE / Ca / Cl / DBIL / GLC / IP / K / LDH / Na / PL / RALB / TBIL / TC / TG / TP / gamma-GTP: tissue Plasma

Structure (SMILES): CCc1cc(C(N)=S)ccn1 [ETHIONAMIDE]
- TERMINAL_BW (3 h): 230.2 g
- APTT (3 h): 17.6 s
- Bas (3 h): 0%
- Eos (3 h): 1%
- Fbg (3 h): 208.2 mg/dL
- Hb (3 h): 13.7 g/dL
- Ht (3 h): 40.6%
- Lym (3 h): 79.4%
- MCH (3 h): 21.7 pg
- MCHC (3 h): 33.7%
- MCV (3 h): 64.3 fL
- Mono (3 h): 4.8%
- Neu (3 h): 15.4%
- PT (3 h): 12.5 s
- Plat (3 h): 121.1 x10_4/uL
- RBC (3 h): 631.4 x10_4/ul
- Ret (3 h): 7.4%
- WBC (3 h): 69.7 x10_2/uL
- KIDNEY_L (3 h): 1 g
- KIDNEY_R (3 h): 1.1 g
- KIDNEY_TOTAL (3 h): 2.1 g
- LIVER (3 h): 11.4 g
- A/G (3 h): 1.8
- ALP (3 h): 771 IU/L
- ALT (3 h): 30.2 IU/L
- AST (3 h): 62.8 IU/L
- BUN (3 h): 15.6 mg/dL
- CRE (3 h): 0.6 mg/dL
- Ca (3 h): 10.8 mg/dL
- Cl (3 h): 102 meq/L
- DBIL (3 h): 0.016 mg/dL
- GLC (3 h): 200 mg/dL
- IP (3 h): 9.6 mg/dL
- K (3 h): 4.2 meq/L
- LDH (3 h): 102.4 IU/L
- Na (3 h): 141.2 meq/L
- PL (3 h): 126.2 mg/dL
- RALB (3 h): 3.5 g/dL
- TBIL (3 h): 0.4 mg/dL
- TC (3 h): 70.4 mg/dL
- TG (3 h): 63 mg/dL
- TP (3 h): 5.5 g/dL
- gamma-GTP (3 h): 1.4 IU/L
- TERMINAL_BW (6 h): 225.7 g
- APTT (6 h): 18.3 s
- Bas (6 h): 0%
- Eos (6 h): 0.8%
- Fbg (6 h): 203 mg/dL
- Hb (6 h): 14.5 g/dL
- Ht (6 h): 43.1%
- Lym (6 h): 80.6%
- MCH (6 h): 21.8 pg
- MCHC (6 h): 33.6%
- MCV (6 h): 64.7 fL
- Mono (6 h): 6.4%
- Neu (6 h): 12.4%
- PT (6 h): 13.5 s
- Plat (6 h): 124 x10_4/uL
- RBC (6 h): 667 x10_4/ul
- Ret (6 h): 7.8%
- WBC (6 h): 112.6 x10_2/uL
- KIDNEY_L (6 h): 1 g
- KIDNEY_R (6 h): 1 g
- KIDNEY_TOTAL (6 h): 2 g
- LIVER (6 h): 10.7 g
- A/G (6 h): 2
- ALP (6 h): 845.6 IU/L
- ALT (6 h): 32.8 IU/L
- AST (6 h): 73.2 IU/L
- BUN (6 h): 18.4 mg/dL
- CRE (6 h): 0.5 mg/dL
- Ca (6 h): 11.3 mg/dL
- Cl (6 h): 104.2 meq/L
- DBIL (6 h): 0.008 mg/dL
- GLC (6 h): 188.6 mg/dL
- IP (6 h): 9.8 mg/dL
- K (6 h): 4.3 meq/L
- LDH (6 h): 135.2 IU/L
- Na (6 h): 140 meq/L
- PL (6 h): 122.8 mg/dL
- RALB (6 h): 3.7 g/dL
- TBIL (6 h): 0.5 mg/dL
- TC (6 h): 66 mg/dL
- TG (6 h): 34.2 mg/dL
- TP (6 h): 5.6 g/dL
- gamma-GTP (6 h): 1 IU/L
- TERMINAL_BW (9 h): 224 g
- APTT (9 h): 18.1 s
- Bas (9 h): 0%
- Eos (9 h): 1.4%
- Fbg (9 h): 208.6 mg/dL
- Hb (9 h): 14.2 g/dL
- Ht (9 h): 42.3%
- Lym (9 h): 68.8%
- MCH (9 h): 21.2 pg
- MCHC (9 h): 33.7%
- MCV (9 h): 63.1 fL
- Mono (9 h): 8.4%
- Neu (9 h): 21.4%
- PT (9 h): 14.4 s
- Plat (9 h): 119.7 x10_4/uL
- RBC (9 h): 669.8 x10_4/ul
- Ret (9 h): 7.6%
- WBC (9 h): 69.4 x10_2/uL
- KIDNEY_L (9 h): 1 g
- KIDNEY_R (9 h): 1 g
- KIDNEY_TOTAL (9 h): 1.9 g
- LIVER (9 h): 10.1 g
- A/G (9 h): 2
- ALP (9 h): 660.4 IU/L
- ALT (9 h): 31 IU/L
- AST (9 h): 72 IU/L
- BUN (9 h): 15.6 mg/dL
- CRE (9 h): 0.5 mg/dL
- Ca (9 h): 10.7 mg/dL
- Cl (9 h): 106 meq/L
- DBIL (9 h): 0.01 mg/dL
- GLC (9 h): 195.2 mg/dL
- IP (9 h): 10.3 mg/dL
- K (9 h): 4.2 meq/L
- LDH (9 h): 86.2 IU/L
- Na (9 h): 143 meq/L
- PL (9 h): 106.6 mg/dL
- RALB (9 h): 3.6 g/dL
- TBIL (9 h): 0.4 mg/dL
- TC (9 h): 57.2 mg/dL
- TG (9 h): 19.8 mg/dL
- TP (9 h): 5.5 g/dL
- gamma-GTP (9 h): 0.8 IU/L
- TERMINAL_BW (24 h): 231.6 g
- APTT (24 h): 17.5 s
- Bas (24 h): 0%
- Eos (24 h): 1%
- Fbg (24 h): 194.8 mg/dL
- Hb (24 h): 14.2 g/dL
- Ht (24 h): 42%
- Lym (24 h): 66.2%
- MCH (24 h): 21.7 pg
- MCHC (24 h): 33.7%
- MCV (24 h): 64.3 fL
- Mono (24 h): 10%
- Neu (24 h): 23.2%
- PT (24 h): 13.6 s
- Plat (24 h): 112.3 x10_4/uL
- RBC (24 h): 653.6 x10_4/ul
- Ret (24 h): 7.7%
- WBC (24 h): 95 x10_2/uL
- KIDNEY_L (24 h): 1.1 g
- KIDNEY_R (24 h): 1.1 g
- KIDNEY_TOTAL (24 h): 2.2 g
- LIVER (24 h): 11.3 g
- A/G (24 h): 1.9
- ALP (24 h): 1035.2 IU/L
- ALT (24 h): 50.4 IU/L
- AST (24 h): 81.6 IU/L
- BUN (24 h): 15 mg/dL
- CRE (24 h): 0.6 mg/dL
- Ca (24 h): 10.6 mg/dL
- Cl (24 h): 104.6 meq/L
- DBIL (24 h): 0.028 mg/dL
- GLC (24 h): 190.8 mg/dL
- IP (24 h): 7.9 mg/dL
- K (24 h): 4.5 meq/L
- LDH (24 h): 106.2 IU/L
- Na (24 h): 141 meq/L
- PL (24 h): 105.2 mg/dL
- RALB (24 h): 3.4 g/dL
- TBIL (24 h): 0.4 mg/dL
- TC (24 h): 49.8 mg/dL
- TG (24 h): 77 mg/dL
- TP (24 h): 5.2 g/dL
- gamma-GTP (24 h): 1.4 IU/L
